Data reported in patent publication EP1200114B1, “PPAR DELTA INHIBITORS FOR THE TREATMENT OF CARDIOVASCULAR DISEASES” (priority 1999, dated 2001).
“Also recorded” adds a separate entry of the source.

How the values were obtained:
[1] = tested on: parental THP-1 cells; assay: PMA-induced differentiation (adherence to culture dish) of parental THP-1 cells; format: cell-based, human; details: incubated with PMA and inhibitor
Experimental: (§1) Cells were treated overnight with 5ng/ml PMA and scored for differentiation (adherence to culture dish) and viability (trypan blue exclusion).
(§2) Parental and PPARδ anti-sense cells were incubated with PMA and an inhibitor of PKC activity (Bis) and two inhibitors of PLA2 activity (OBAA and mepacrine). These inhibitors were included at concentrations used in previous studies for specific inhibition.

[2] = tested on: PPARδ anti-sense cell line; assay: Viability (trypan blue exclusion) of PPARδ anti-sense cells treated with PMA; format: cell-based, human; details: incubated with PMA and inhibitor
Experimental: as §1, §2

[3] = tested on: parental THP-1 cells
Experimental: as §1, §2

[4] = tested on: THP-1 cells; assay: THP-1 foam cell model (PMA-activated cells, Oil Red O lipid staining); format: cell-based, human; details: for foam cell formation: adherent PMA-treated THP-1 cells; for lipid accumulation: PMA-treated THP-1 cells, Oil Red O staining
From the text: Treatment was continued for 3 days and the cells fixed in 0.66M paraformaldehyde, stained with a saturating solution of Oil Red O and then counterstained with haematoxylin.

[5] = tested on: ApoE; assay: ApoE mRNA by TAQMAN in THP-1 cells; format: cell-based, human; details: parental THP-1 cells treated with PMA and linoleic acid
Experimental: Total RNA was prepared from parental THP-1 cells treated with PMA (THP-1), or PMA and linoleic acid (THP-1+FA), and untreated PPARδ over-expressing cell line (DELTA). cDNA was prepared from these RNA samples and the cDNA was analysed for ApoE sequences using TAQMAN procedures. The result shown is relative expression normalised for β-actin expression and the error bars represent the standard deviation in duplicate samples.

[6] = tested on: LNCaP; assay: Prostate cell growth, colorimetric cell number assay; format: cell-based; details: low concentrations, 7 days
Experimental: (§3) Cell lines were plated at 2,500 cells per well in a 24-well plate and cultured in RPMI containing 5% dextran-coated charcoal-treated FCS. Increasing concentrations of Compound F or LG 100268 were included in the culture medium and the cultures were maintained for 7 days with changes of drugs and medium every 48 hours.

[7] = tested on: PNT1A; assay: as above; format: cell-based; details: low concentrations, 7 days
Experimental: as §3

| SMILES | differentiation of parental THP-1 cells [1] | PMA-induced "death" of the PPARδ anti-sense cell line [2] | foam cell formation [4] | lipid accumulation [4] | further results |
| --- | --- | --- | --- | --- | --- |
| CCN(CC)CCCC(C)Nc1c2ccc(Cl)cc2nc2ccc(OC)cc12 (centres unmarked) [Mepacrine, 6-chloro-9-[(4-diethylamino)-1-methylbutyl]amino-2-methoxy-acridine] | prevented | did not block |  |  | toxicity in the parental cells [3]: sign of toxicity |
| Cc1cccc(Nc2cc(Cl)nc(SCC(=O)O)n2)c1C [Wy 14,643] |  |  | no effect |  |  |
| CCCCCCCCCCCCCCCCCCc1ccc(C(=O)C=CC(=O)O)cc1 [OBAA, 3-(4-octadecyl)benzoylacrylic acid] | prevented | did not block |  |  |  |
| CN(C)CCCn1cc(C2=C(c3c[nH]c4ccccc34)C(=O)NC2=O)c2ccccc21 [Bis, bisindoylmaleamide I] | prevented | did not block |  |  |  |
| CCCCC/C=C\C/C=C\CCCCCCCC(=O)O [linoleic acid] |  |  |  | Increased lipid accumulation; also recorded: leads to the accumulation of lipid droplets in the cytoplasm | apoE mRNA levels [5]: reduced |
| Cc1cc2c(cc1C1(c3ccc(C(=O)O)cn3)CC1)C(C)(C)CCC2(C)C [LG 100268] |  |  | promoted foam cell formation in co-operation with fatty acids | Increased lipid accumulation | growth stimulated [6]: also seen; growth stimulated [7]: also seen |
